Data as given in US3943154A, “Acylamides of beta-cyano-ethenesulfonyl substituted aminoarenes” (Sanitized Incorporated, priority 1973, dated 1976).
Converted amounts (≈) assume the structure as drawn.

Columns and labels:
[1] = solubility of the product in solvents; assay type: physicochemical
Protocol: Naphthalene-2,6-disulfonyl chloride (6.2 g, 0.02 mol) is dissolved in 100 ml dimethylformamide; to the solution is added, in 2-3 portions over about a minute, a solution of 3-(4-aminobenzenesulfonyl)acrylonitrile in 50 ml dimethylformamide containing 6 ml triethylamine (8.4 g, 0.04 mol). The temperature rises to 35° C by the exothermic reaction. The reaction mixture is maintained at room temperature for 2 hours and filtered to separate triethylamine hydrochloride therefrom. Addition of chloroform to the filtrate precipitates the product which, after washing with ethanol/water and drying, is in the form of a slightly off-white powder having a melting point of 312° C. […] It is naphthalene-2,6-bis-sulfon-[4-(2-cyanoethenesulfonyl)anilide]: ##SPC42##

[2] = test system: Aspergillus niger ATCC 6257; experiment: agar incorporation test, antifungal activity; assay type: cell-based; conditions: lowest concentration showing no growth or sporulation, four days at 28° C; for MIC: Aspergillus niger, ATCC6257, 96 h, read-out: Antifungal Activity A. niger, minimum inhibitory concentration
Protocol: The anti-fungal activity of the test compounds was determined employing the "agar incorporation" technique, utilizing spores from Aspergillus niger ATCC 6257 as a representative organism. Test solutions were prepared as described above in acetone or dimethylsulfoxide. A source of carbon agar such as Mycophil Agar was used. The agar was melted and cooled and placed in a constant temperature water bath at 45° C + 3° C. About 13-14 ml of the agar was then poured into a sterile Petri dish, the required amount of test solution to give the desired concentration immediately added thereto, and the dish rotated and swirled by hand to obtain a uniform mixture before the agar hardened.
The hardened plates were inoculated with the test organism by fishing spores from a 7-14 day old slant with the inocculating needle and spotting the spores on the plates, usually in several places. The inoculated plates were incubated for four days in an incubator maintained at 28° C +2° C and with a relative humidity of 95%+.
The lowest concentration of each test compound showing no growth or sporulation of the test organism was taken as the minimum inhibitory concentration and is reported in the following tabulation.
(§1) The button assay and agar incorporation tests were also utilized to determine the corresponding inhibitory concentrations of various control materials, viz., the following well known commercial antimicrobials and fungicides: hexachlorophene, tribromosalicylanilide, trichlorocarbanilide,Captan (N-(trichloromethylthio)4cyclohexene-1,2-dicarboximide) and Zineb (zinc ethylenebis[dithiocarbamate]). The minimum inhibitory concentration of each of the various control materials against the respective organisms is indicated in Table IV below: […]

[3] = test system: Bacillus subtilis ATCC 9525; experiment: button assay, antibacterial activity; assay type: cell-based; conditions: 24 hours at 37° C; for MIC: Bacillus subtilis, ATCC9525, lowest concentration showing a clear zone of inhibition, read-out: Antibacterial Activity B.subtilis, minimum inhibitory concentration; for Antibacterial Activity B.subtilis, minimum inhibitory concentration: lowest concentration showing a clear zone of inhibition
Protocol: (§2) In the test program, the minimum inhibitory concentrations of the respective test compounds against various Gram positive and Gram negative bacteria were determined, employing the "button assay" method. The test organisms utilized were standard cultures of Staphylococcus aureus ATCC 6538 DR, a penicillin resistant Gram positive bacterium; Bacillus subtilis ATCC 9525, a spore-forming Gram positive bacillus; and Salmonella typhosa ATCC 6539, a Gram negative bacterium.
(§3) In the tests the respective compounds were dissolved in a suitable solvent, usually acetone or dimethylsulfoxide, to give solutions with known concentrations of active material. The highest concentration was ordinarily 1000 ppm (parts per million) [0.1%], and dilutions were made in suitable steps down to 1 ppm. Penicillin test buttons of filter paper having a diameter of 13 mm (socalled "Peniassay" buttons) were added to each solution within a test tube and left submerged for five minutes. They were then removed and left to dry on paper towels under sterile conditions. A laminar flow sterile cabinet equipped with ultraviolet lamps operating under positive air pressure was utilized for this purpose.
(§4) An 18-24 hour old nutrient broth culture (standard 1.5% nutrient agar) prepared in conventional manner from a slant and having passed through at least three consecutive daily transfers was used for inoculation. Melted and cooled sterile agar (45° C) was inoculated with the respective broth cultures by addition of 20 ml broth per liter of agar. The agar was then dispensed into Petri dishes (20 ml per plate) under sterile conditions and allowed to harden.
(§5) The test buttons were placed on the surface of the hardened agar and the plates incubated for 24 hours at 37° C. Where, on inspection, a clear zone of inhibition appeared around the button, inhibition of growth was presumed. Where growth touched the button there was no inhibition. For each of the test compounds, the lowest concentration showing a clear zone is reported as the inhibitory concentration in the following table.
as §1

[4] = test system: Staphylococcus aureus ATCC 6538 DR; experiment: button assay, antibacterial activity; assay type: cell-based; conditions: for MIC: Staphylococcus aureus, ATCC6538, 24 h, read-out: Antibacterial Activity S.aureus, minimum inhibitory concentration; for Antibacterial Activity S.aureus, minimum inhibitory concentration: button assay, lowest concentration showing a clear zone of inhibition, 24 hours at 37° C
Protocol: as §2, §3, §4
as §5, with “table. […]” for “table.”

[5] = test system: Salmonella typhosa ATCC 6539; experiment: button assay, antibacterial activity; assay type: cell-based; conditions: for MIC: Salmonella enterica, 24 h, read-out: Antibacterial Activity S.typhosa, minimum inhibitory concentration; for Antibacterial Activity S.typhosa, minimum inhibitory concentration: button assay, lowest concentration showing a clear zone of inhibition, 24 hours at 37° C
Protocol: as §2
as §3, with “The” for “In the tests the respective compounds were dissolved in a suitable solvent, usually acetone or dimethylsulfoxide, to give solutions with known concentrations of active material. The”
as §4
as §5, with “table. […]” for “table.”

[6] = stability of the recovered product; assay type: physicochemical; conditions: recovered by filtration and drying at low temperature under vacuum
Protocol: 10.4 g (0.05 mol) of 2-cyanovinyl 4-aminophenyl sulfone is dissolved in 100 ml of acetone and the solution cooled to 0° C. […] of phosphorus trichloride dissolved in 20 ml of acetone is added dropwise with stirring. After about 40 minutes the reaction mixture is poured into ice water with vigorous stirring. The intermediate initially formed hydrolyzes easily upon the addition of water to form di-4-(2-cyanoethenesulfonyl)anilidophosphine oxide, which can be recovered by filtration and drying at low temperature under vacuum.

SMILES | solubility in dimethylformamide and dimethylsulfoxide ([1]; dimethylformamide, dimethylsulfoxide) | solubility in ethanol, chloroform and acetone ([1]; ethanol, chloroform, acetone) | MIC [2] | MIC [3] | MIC [4] | MIC [5] | stability of the product [6] | Antifungal Activity A. niger, minimum inhibitory concentration [2] | Antibacterial Activity B.subtilis, minimum inhibitory concentration [3] | Antibacterial Activity S.aureus, minimum inhibitory concentration [4] | Antibacterial Activity S.typhosa, minimum inhibitory concentration [5]
N#CC=CS(=O)(=O)c1ccc(NS(=O)(=O)c2ccc3cc(S(=O)(=O)Nc4ccc(S(=O)(=O)C=CC#N)cc4)ccc3c2)cc1 [Example 37, naphthalene-2,6-bis-sulfon-[4-(2-cyanoethenesulfonyl)anilide]] | soluble | almost insoluble | 1000 µg/mL (≈ 1500 µM) | 50 µg/mL (≈ 74.8 µM) | 20 µg/mL (≈ 29.9 µM) | 20 µg/mL (≈ 29.9 µM) | – | – | – | – | –
N#CC=CS(=O)(=O)c1ccc(N[PH](=O)Nc2ccc(S(=O)(=O)C=CC#N)cc2)cc1 [Example 57, di-4-(2-cyanoethenesulfonyl)anilidophosphine oxide] | – | – | 100 µg/mL (≈ 216 µM) | 20 µg/mL (≈ 43.2 µM) | 20 µg/mL (≈ 43.2 µM) | 20 µg/mL (≈ 43.2 µM) | somewhat unstable | – | – | – | –
O=C(Nc1ccc(Br)cc1)c1cc(Br)cc(Br)c1O [tribromosalicylanilide, reference compound] | – | – | – | – | – | – | – | > 1,000 ppm | 100 ppm | 100 ppm | 50 ppm
O=C(Nc1ccc(Cl)cc1)Nc1ccc(Cl)c(Cl)c1 [trichlorocarbanilide, reference compound] | – | – | – | – | – | – | – | 1,000 ppm | > 10,000 ppm | 10 ppm | 10,000 ppm
